Assay results from ChEMBL document CHEMBL3593235, “Discovery of xanthine oxidase inhibitors and/or α-glucosidase inhibitors by carboxyalkyl derivatization based on the flavonoid of apigenin” (Bioorg Med Chem Lett, 2015).
pIC50: −log10 of the molar value. Calls of active or inactive are those of the source. No cut-off for these calls is given here.

What was measured:
[1] = target: Xanthine dehydrogenase/oxidase (Homo sapiens, UniProt P47989); test: Inhibition of xanthine oxidase (unknown origin) using xanthine as substrate preincubated for 15 mins followed by substrate addition measured after 30 mins by spectrophotometric analysis
Chain of Xanthine dehydrogenase/oxidase (P47989 whole entry): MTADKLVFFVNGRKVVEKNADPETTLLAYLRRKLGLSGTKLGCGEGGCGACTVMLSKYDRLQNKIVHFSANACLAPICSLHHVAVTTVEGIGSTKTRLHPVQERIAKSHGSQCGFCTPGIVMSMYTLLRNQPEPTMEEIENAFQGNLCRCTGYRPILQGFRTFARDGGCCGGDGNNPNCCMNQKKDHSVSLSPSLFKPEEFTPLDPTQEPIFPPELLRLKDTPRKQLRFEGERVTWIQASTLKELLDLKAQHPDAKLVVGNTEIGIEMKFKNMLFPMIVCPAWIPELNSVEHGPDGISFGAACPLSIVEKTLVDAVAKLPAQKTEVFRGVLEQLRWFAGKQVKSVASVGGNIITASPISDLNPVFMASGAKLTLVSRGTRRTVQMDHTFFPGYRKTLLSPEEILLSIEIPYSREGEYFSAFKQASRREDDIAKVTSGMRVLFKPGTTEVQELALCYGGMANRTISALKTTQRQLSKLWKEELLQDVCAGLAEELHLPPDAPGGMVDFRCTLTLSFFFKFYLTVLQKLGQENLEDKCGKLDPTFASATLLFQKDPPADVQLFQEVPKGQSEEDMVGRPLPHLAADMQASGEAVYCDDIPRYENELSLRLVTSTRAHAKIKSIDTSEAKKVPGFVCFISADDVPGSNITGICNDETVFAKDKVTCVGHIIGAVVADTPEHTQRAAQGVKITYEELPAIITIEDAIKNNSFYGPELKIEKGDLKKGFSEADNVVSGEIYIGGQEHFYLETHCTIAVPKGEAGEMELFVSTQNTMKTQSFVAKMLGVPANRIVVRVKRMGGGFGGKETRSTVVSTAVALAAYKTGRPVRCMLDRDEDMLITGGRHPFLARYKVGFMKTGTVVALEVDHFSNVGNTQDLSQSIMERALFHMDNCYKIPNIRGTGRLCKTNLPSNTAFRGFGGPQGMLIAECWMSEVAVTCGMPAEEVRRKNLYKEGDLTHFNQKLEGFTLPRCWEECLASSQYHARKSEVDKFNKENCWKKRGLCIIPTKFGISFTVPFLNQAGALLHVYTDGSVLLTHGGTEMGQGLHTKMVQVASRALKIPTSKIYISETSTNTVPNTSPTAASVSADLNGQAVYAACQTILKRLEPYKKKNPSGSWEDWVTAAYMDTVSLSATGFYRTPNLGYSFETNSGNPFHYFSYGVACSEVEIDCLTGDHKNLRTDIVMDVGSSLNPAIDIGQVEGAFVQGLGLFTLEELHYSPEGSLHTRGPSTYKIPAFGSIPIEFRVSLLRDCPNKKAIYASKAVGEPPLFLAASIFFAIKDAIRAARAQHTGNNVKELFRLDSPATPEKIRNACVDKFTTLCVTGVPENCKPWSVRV

[2] = Inhibition of alpha glucosidase (unknown origin) using para-nitrophenyl-alpha-D-glucopyranoside as substrate preincubated for 15 mins followed by substrate addition measured after 10 mins by spectrophotometric analysis; design: species or system Homo sapiens
Mus musculus [3] = test: Hypoglycemic activity in ICR mouse assessed as decrease in elevated postprandial blood glucose level at 20 mg/kg, po administered 30 mins prior to glucose challenge measured after 30 mins by OGTT; type: functional, organism-based
Mus musculus [4] = test: Hypoglycemic activity in ICR mouse assessed as decrease in elevated postprandial blood glucose level at 20 mg/kg, po administered 30 mins prior to sucrose challenge measured after 30 mins by OSTT; type: functional, organism-based
Mus musculus [5] = test: Hypouricemic activity in ICR mouse assessed as decrease in potassium oxonate-induced serum uric acid level at 10 mg/kg, ip after 1 hr by Uricase colorimetric method; type: functional, organism-based

| pIC50 [1] | pIC50 [2] | Compound | Activity (Mus musculus [3]) | Activity (Mus musculus [4]) | Activity (Mus musculus [5]) |
| --- | --- | --- | --- | --- | --- |
| < 4.00 | 4.35 | O=C(O)CCCOc1cc(O)c2c(=O)cc(-c3ccc(O)cc3)oc2c1 | – | – | – |
| 6.49 | < 3.30 | O=C(O)CCCCCOc1ccc(-c2cc(=O)c3c(O)cc(O)cc3o2)cc1 | – | – | – |
| – | 4.29 | O=C(O)CCCCCCOc1cc(O)cc2oc(-c3ccc(O)cc3)cc(=O)c12 | inactive | Active | – |
| – | 3.95 | O=C(O)COc1cc(O)cc2oc(-c3ccc(O)cc3)cc(=O)c12 | – | – | – |
| < 4.00 | 4.74 | O=C(O)CCCCCCCOc1cc(O)c2c(=O)cc(-c3ccc(O)cc3)oc2c1 | inactive | inactive | – |
| < 4.00 | 4.04 | O=C(O)CCCCCCOc1cc(O)c2c(=O)cc(-c3ccc(O)cc3)oc2c1 | – | – | – |
| – | 4.45 | O=C(O)CCCOc1cc(O)cc2oc(-c3ccc(O)cc3)cc(=O)c12 | – | – | – |
| – | 4.21 | O=C(O)COc1cc(O)c2c(=O)cc(-c3ccc(O)cc3)oc2c1 | – | – | – |
| 7.01 | < 3.30 | O=C(O)CCCCCCOc1ccc(-c2cc(=O)c3c(O)cc(O)cc3o2)cc1 | – | – | Active |
| – | – | Oc1ncnc2[nH]ncc12 | – | – | Active |
| – | 4.41 | O=C(O)CCCCOc1cc(O)cc2oc(-c3ccc(O)cc3)cc(=O)c12 | inactive | inactive | – |
| 6.22 | < 3.30 | O=C(O)CCCOc1ccc(-c2cc(=O)c3c(O)cc(O)cc3o2)cc1 | – | – | – |
| < 4.00 | 3.99 | O=C(O)CCCCCOc1cc(O)c2c(=O)cc(-c3ccc(O)cc3)oc2c1 | – | – | – |
| 6.60 | < 3.30 | O=C(O)CCCCCCCOc1ccc(-c2cc(=O)c3c(O)cc(O)cc3o2)cc1 | – | – | – |
| – | 4.58 | O=C(O)CCCCCOc1cc(O)cc2oc(-c3ccc(O)cc3)cc(=O)c12 | inactive | Active | – |
| 6.66 | < 3.30 | O=C(O)CCCCOc1ccc(-c2cc(=O)c3c(O)cc(O)cc3o2)cc1 | – | – | – |
| – | < 3.30 | O=C(O)CCCCCCCOc1cc(O)cc2oc(-c3ccc(O)cc3)cc(=O)c12 | – | – | – |
| – | < 3.30 | O=C(O)COc1ccc(-c2cc(=O)c3c(O)cc(O)cc3o2)cc1 | – | – | – |
| – | 3.65 | C[C@H]1O[C@H](O[C@H]2[C@H](O)[C@@H](O)[C@@H](O[C@H]3[C@H](O)[C@@H](O)C(O)O[C@@H]3CO)O[C@@H]2CO)[C@H](O)[C@@H](O)[C@@H]1N[C@H]1C=C(CO)[C@@H](O)[C@H](O)[C@H]1O (some centres undefined) [ACARBOSE] | – | Active | – |
| < 4.00 | 4.47 | O=C(O)CCCCOc1cc(O)c2c(=O)cc(-c3ccc(O)cc3)oc2c1 | – | – | – |

| Compound | pIC50 [1] | pIC50 [2] | Activity (Mus musculus [3]) | Activity (Mus musculus [4]) | Activity (Mus musculus [5]) |
| --- | --- | --- | --- | --- | --- |
| O=c1cc(-c2ccc(O)cc2)oc2cc(O)cc(O)c12 [APIGENIN] | 5.49 | 4.61 | – | inactive | inactive |
